Assay: Effective concentration required to stimulate Adenylate cyclase

EC50: 210 nM
Compound: Cc1ccc([C@H]2CNCCc3cc(O)c(O)cc32)cc1
